Experimental data reported in PMC10163259, “KK-LC-1 as a therapeutic target to eliminate ALDH^+ stem cells in triple negative breast cancer” (Nature Communications, 2023).

Target: T1, KK-LC-1 (Homo sapiens, UniProt Q5H943)
T1 construct: gene CT83; purified KK-LC-1 protein, biotinylated, immobilised on Super Streptavidin sensors
T1 sequence (Q5H943 1-113): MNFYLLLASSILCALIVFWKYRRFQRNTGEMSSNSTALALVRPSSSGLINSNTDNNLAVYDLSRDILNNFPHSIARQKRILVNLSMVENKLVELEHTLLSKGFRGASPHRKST
Assay: biolayer interferometry (Octet K2)
Format: binding
Settings: 30 °C; PBS with 0.1% BSA, 0.01% Tween-20, 1% DMSO; biotinylated KK-LC-1 immobilised; from kon/koff

**Q.** Cc1ccc(CNC(=O)c2nnc(CN(C)C3CCc4ccccc43)s2)cc1 (stereo not shown) [Z8, Z839878730] was tested. Which Kd did it give?
**A.** 4.3 µM
